Results reported in US20090131513A1, “ANTI-INFLAMMATORY MODALITIES” (Novogen Research Pty Ltd., priority 2005, published 2009).

What was measured:
[1] = test system: UV irradiation-induced skin oedema; assay: Murine model of UV irradiation-induced skin oedema; assay type: in vivo, mice (Skh:hr-1 albino); conditions: for Increase in skin thickness (mean ± SD, ×0.01 mm): topical 0.2 ml of 20 μM at 30 min, 2 h, 4 h
From the text: Groups of 4-5 female Skh:hr-1 albino mice were irradiated with 1×3 MEdD (minimal edematous dose) of solar simulated UV radiation (SSUV). Solar-simulated ultraviolet radiation (SSUV) was provided by a planar bank of 6 UVA tube (Hitachi 40 W F40 T 10/BL, black light) and one UVB tube (Philips TL 40 W/12 RS) with radiation filtered through a sheet of 0.125 mm cellulose acetate (Eastman Chemical Products, Kingport, Term, USA) to give 2.96×10-4 W/cm2 UVA and 1.59×10-5 W/cm2 UVB. During irradiation, the cages were rotated below the lights to reduce the variation in radiation intensity in different positions.
Either test compound (0.2 ml of a 20 μM solution) or vehicle (propylene glycol/ethanol/water 1:2:1) was applied to the irradiated dorsal skin at 30 min, 2 h and 4 h post-irradiation. Dorsal skin fold measurements were made with a spring micrometer prior to and at 24 hr and 48 h post-UV exposure. The difference in skin thickness pre- and post-exposure to UVR was calculated for each mouse, and the differences examined between test compound and vehicle control were analysed using an unpaired two-tailed t test.

[2] = test system: NO synthesis in mouse macrophage cell line RAW 264.7; assay: Inhibition of nitric oxide synthesis (Griess reaction); assay type: cell-based; conditions: 10 μM
Experimental: Exposure of various cells (e.g. macrophages and smooth muscle cells) to bacterial LPS and proinflammatory cytokines induces iNOS which generates NO. NO production can be indirectly quantified by measurement of nitrite (NO2—), a stable breakdown product of NO. The mouse macrophage cell line RAW 264.7 was cultured in DMEM supplemented with FCS, 2 mM glutamine and 50 U/ml penicillin/streptomycin. Cells were treated with either test compound at 10 μM (in 0.125% DMSO) or vehicle alone, together with 10 ng/ml LPS. After incubation for 24 hrs, culture media was collected and analysed immediately for NO concentration using the Griess reaction (Eigler et al. 1995).

[3] = test system: AA-induced ear inflammation; assay: Murine ear inflammation induced by arachidonic acid; assay type: in vivo, mice (BALB/c); conditions: for Increase in ear thickness (mean ± SD, ×0.01 mm): 25 mg/kg i/p, 1 hr post-AA application; for AA-induced ear inflammation / ear thickness compared with vehicle, in words: mouse, in vivo
From the text: Compounds were examined for their ability to inhibit ear swelling in mice induced by the topical application of arachidonic acid (AA). The inflammatory response due AA, the immediate precursor of the eicosanoids, is due to formation of AA metabolites via both the cyclooxygenase (COX) and lipoxygenase (LOX) pathways (Young et al. 1984). AA induces an increase in both PGE2 and LTC4 synthesis which precedes the increase in ear thickness (Opas et al. 1985; Chang et al. 1986).
Female BALB/c mice (ARC, WA, Australia), weighing 15-21 g were injected with Compound 2 delivered in polyethylene glycol (PEG) 400:phosphate buffered saline (PBS) 1:1 intraperitoneally (i/p) at a dose of 25 mg/kg either 30 min prior to or immediately before the application of AA to the ears. Mice were anaesthetized using isoflurane and baseline thickness of both ears was measured using a spring micrometer. Each mouse received a total of 20 μL of AA in ethanol (50 mg/ml) applied to the inner and outer surfaces of each pinna (i.e. 0.5 mg AA per ear). Mice were anaesthetized again to remeasure the ears at 1 hr post-AA application.
The difference in ear swelling pre- and post-application of AA for each ear was calculated, and the average for the two ears of each mouse calculated. The difference in mean swelling of each test group compared to the group given vehicle alone was calculated using a two-tailed unpaired t test (Prism 4, GraphPad Software).

DSS-induced colitis = assay: Murine model of DSS-induced colitis; assay type: in vivo, mice (BALB/c); conditions: for ulceration of the posterior colon (mice affected): vehicle 3/8; for mean clinical score versus vehicle: Experiment 3, 11 (p=0.0252); for colonic inflammation, in words: series of experiments, 1.0-1.25 mg/kg single oral dose per day
Experimental: Female BALB/c mice, 6-7 weeks old, were housed for a minimum of one week before any experimental work began. To induce colitis, dextran sulphate sodium (DSS—molecular weight 40 kD, TdB Consultancy AB, Uppsala, Sweden (Dieleman et al. 1994), was administered fresh daily in the drinking water at a concentration of 4.5-5% for 5 days (Okayasu et al. 1990), after which water alone was given. This regime induced mild colitis, evidenced by diarrhea and rectal bleeding, the severity of which was scored, as well as a reduction in the length of the colon. Histologically, colonic inflammation was evidenced by ulceration and an infiltration of neutrophils into the mucosa, which was also scored. The systemic effect of the colitis causes weight loss, which was also monitored.
Either vehicle (PEG 400:PBS1:1) Compounds 1 or 4 were administered at a dose rate of 1 mg/kg throughout the experiment until the mice were killed at day 17.
Either Compounds 1 and 2, at a dose of 1 mg/kg or vehicle were administered for 10 days prior to DSS being added to the drinking water to induce colitis, after which test compound was stopped. DSS was administered for 5 days and the mice killed 8 days later (day 23).
Either the cis or the trans isomers of Compound 3 (Compound 3a and 3b respectively) at 1.25 mg/kg or vehicle were administered throughout the experiment until the mice were killed at day 17.

[4] = test system: inflammed rat air pouches (serum-treated zymozan); assay: Rat air pouch assay; assay type: in vivo, rats (Dark Agouti); conditions: 0.5 ml of 100 μM into pouch; for Leucocytes in lavage fluid (×10^−7): lavage at 4 h
Experimental: An alternative assay used to measure anti-inflammatory efficacy is the air pouch model which involves the repeated subcutaneous injection of air into the dorsum of rats followed 24 h later by the intrapouch injection of an inflammatory stimulus (Gilroy et al. 1998).
Air pouches were raised on the dorsum of female Dark Agouti rats, approximately 7 weeks of age. To promote the formation of a cellular membrane lining the inside of each pouch, the pouches were maintained by re-inflating on days 2 and 5 after the initial injection of air. On re-inflation, the pouch was first deflated to ensure the needle was positioned correctly, before being re-inflated with 2 mL of sterile air. Using this protocol, the pouches remained inflated until use on day 7, when they were injected with 0.5 ml of either test compound at 100 μM or vehicle control. After 15 min, air pouches were injected with serum-treated zymozan (STZ-500 μg). Lavage of the air pouch (4×2 ml lavages) was performed at 4 h and leucocytes counted, after which the rats were killed, the air pouch excised and processed in formalin for histology. The sections were blinded to the person counting. Using a graticule with 100 squares and the 40× objective, the number of polymorphs were counted in the pouch lining at 10 different and non-adjacent sites. Group sizes were 5-6 rats. Data were analysed for statistical significance within each experiment and using an unpaired t test.

NFκB promoter activity = assay: Inhibition of NFκB promoter activity (β-lactamase reporter) in TNFα-stimulated THP-1 cells; assay type: cell-based, human; conditions: 5 h
Experimental: Human macrophage THP-1 cells, modified to include the β-lactamase reporter gene, were seeded into wells of a 96-well plate (50×10^3 cells/well) in the presence of RPMI 1640 medium (70 μl). TNFα (7.5 ng/ml) and human sera (final concentration of 20%) were added to each well. Plates were incubated for 5 h at 37° C. to allow for NFkB-stimulated β-lactamase production. LiveBLAzer™ FRET B/G Substrate (CCF4-AM) was then added to assay for β-lactamase activity. Once CCFA-AM enters a cell, it is converted to negatively charged CCF4 by endogenous esterases. Excitation of this substrate at 409 nm leads to efficient FRET between the coumarin and fluorescein moieties, resulting in a green fluorescence detectable at 530 nm. The presence of β-lactamase leads to cleavage of CCF4 and results in a loss of FRET, resulting in a robust blue fluorescent signal detectable at 460 nm. Thus, activity of beta-lactamase (a marker of NFkB-promoter activity) is measured as a product to substrate ratio (blue/green fluorescence ratio: 460 nm/530 nm).

TX synthase (TXS) = target: T1, TX synthase (TXS) (Homo sapiens, UniProt P24557); assay: TXB2 synthesis following addition of exogenous PGH2 to U937 cells; assay type: cell-based; conditions: 1, 10, 100 μM, undifferentiated U937 cells, PGH2 5 μM
T1 construct: endogenous in cells; host or cells: undifferentiated U937 cells
T1 sequence (P24557 1-533): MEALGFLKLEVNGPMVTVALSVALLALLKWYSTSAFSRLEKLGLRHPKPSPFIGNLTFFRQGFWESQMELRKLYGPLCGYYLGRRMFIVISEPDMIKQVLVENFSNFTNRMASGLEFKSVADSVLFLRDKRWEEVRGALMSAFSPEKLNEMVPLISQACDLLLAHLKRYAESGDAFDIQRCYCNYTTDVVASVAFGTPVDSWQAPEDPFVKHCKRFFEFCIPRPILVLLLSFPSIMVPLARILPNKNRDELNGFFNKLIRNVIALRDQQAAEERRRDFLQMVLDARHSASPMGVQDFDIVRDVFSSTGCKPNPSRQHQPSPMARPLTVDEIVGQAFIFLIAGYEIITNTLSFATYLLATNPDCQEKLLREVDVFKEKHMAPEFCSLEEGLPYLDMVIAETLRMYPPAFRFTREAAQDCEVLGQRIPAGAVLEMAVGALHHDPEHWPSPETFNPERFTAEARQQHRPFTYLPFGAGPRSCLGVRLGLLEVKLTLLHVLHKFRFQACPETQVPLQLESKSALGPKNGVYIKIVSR
Experimental: To examine effects of test compounds directly on TX synthase (TXS), a different assay system was used. Whereas arachidonic acid (AA) is the substrate for COX, PGH2 is the substrate for TX synthase. To examine directly the effect of these compounds on TXS, exogenous ? elow:
Test compounds at 0 μM, 1 μM, 10 μM and 100 μM (in DMSO) were incubated with undifferentiated U937 cells (6×10^6/ml) for 30 min at 37° C., after which PGH2 (5 μM) was added. After incubation for 10 min, the reaction was terminated by centrifugation and the supernatants were collected and TXB2 production was measured in triplicate by RIA. ANOVA followed by Newman-Keuls multiple comparisons test was used to examine differences between doses and the control values. A statistical significance level of 0.05 was used and differences from control values are indicated by an asterisk (*).

[5] = test system: inflammed rat air pouches (serum-treated zymozan); assay: Rat air pouch assay; assay type: in vivo, rats (Dark Agouti); conditions: At 1 mM application

Compound | Increase in skin thickness (mean ± SD, ×0.01 mm) ([1]; 24 hrs post-irradiation) [×0.01 mm] | Increase in skin thickness (mean ± SD, ×0.01 mm) ([1]; 48 hrs post-irradiation) [×0.01 mm] | NO synthesis, direction of effect in words [2] | Increase in ear thickness (mean ± SD, ×0.01 mm) [3] [×0.01 mm] | AA-induced ear inflammation / ear thickness compared with vehicle, in words [3] | ulceration of the posterior colon (mice affected) (DSS-induced colitis; Experiment 3, 1.25 mg/kg) | mean clinical score versus vehicle (DSS-induced colitis; days 8 (p=0.0055), 9 (p=0.0057), 17 (p=0.0177)) | colonic inflammation, in words (DSS-induced colitis) | Leucocytes in lavage fluid (×10^−7) [4] | inhibition of NFκB compared to vehicle control (NFκB promoter activity) | thromboxane synthase inhibition (TXB2 synthesis after exogenous PGH2), selectivity in words (TX synthase (TXS)) | UV-induced inflammation / skin oedema, in words ([1]; both time points (24 and 48 hrs), topical) | number of polymorphs in the tissue sections, in words [5] | colon length versus vehicle (DSS-induced colitis; Experiment 3, 1.25 mg/kg) | day of switch from mean body weight loss to mean body weight gain (DSS-induced colitis; Experiment 3, 1.25 mg/kg) [days] | degree of mucosal damage versus vehicle (DSS-induced colitis; Experiment 3, 1.25 mg/kg) | colonic inflammation and its resolution, in words (DSS-induced colitis; Experiment 3, 1.25 mg/kg throughout until day 17) | maximum mean weight loss (DSS-induced colitis; Experiment 3, 1.25 mg/kg, vehicle nearly 5%) | mean clinical score versus vehicle (DSS-induced colitis; days 8 (p=0.0078), 9 (p=0.0326), 10 (p=0.0386), 15 (p=0.0033), 16 (p=0.0016)) | Polymorphs in tissue sections (per 100 squares) ([4]; 4 h)
Cc1c(O)ccc2c1OCC(c1ccc(O)cc1)C2O (single isomer, unassigned) [Compound 3b] | 56 ± 14 | 113 ± 25 | inhibited NO synthesis | 7.1 ± 3.0 | significant reduction in ear thickness | 1/8 | significantly lower | reduced colonic inflammation | 0.66 ± 0.23 ×10^−7 | – | – | – | – | – | – | – | – | – | – | –
Cc1cc(O)cc2c1C(=O)C(c1ccc(O)cc1)CO2 (stereo not shown) [Compound 5] | – | – | – | – | – | – | – | – | – | significantly (p<0.001) inhibited | selective thromboxane synthase inhibitors | – | – | – | – | – | – | – | – | –
Cc1c(O)ccc2c1OCC(c1ccc(O)cc1)C2O (single isomer, unassigned) [Compound 3a] | 32 ± 18 | 69 ± 24 | inhibited NO synthesis | 6.7 ± 2.1 | significant reduction in ear thickness | not observed | – | reduced colonic inflammation | 0.47 ± 0.4 ×10^−7 | – | – | significantly inhibited skin oedema | suppressed the number of polymorphs | significantly longer (p=0.039) | 4 | significantly lower (p=0.018) | reduced colonic inflammation and hastened its resolution | less than 2% | significantly lower | 17.9 ± 14.2
